System: HIV-1 (IIIB)
Experiment: Antiviral (HIV) assay in MT-4 cells
Format: cell-based
Details: Human immunodeficiency virus 1, MT4, 120 h; HIV-1 IIIB in MT-4 cells, 5 days incubation, Cell Titer Glo; average of at least two independent experiments
Description: Example 104: Antiviral (HIV) Assay in MT-4 Cells
Compounds were tested in a high-throughput 384-well assay format for their ability to inhibit the replication of HIV-1 (IIIB) in MT-4 cells. Compounds were serially diluted (1:3) in DMSO on 384-well polypropylene plates and further diluted 200-fold into complete RPMI media (10% FBS, 1% P/S) using the Biotek Micro Flow and Labcyte ECHO acoustic dispenser. Each plate contained up to 8 test compounds, with negative (no drug) and positive (5 μM AZT) controls. MT-4 cells were pre-treated with 10 μL of either RPMI (mock-infected) or a fresh 1:250 dilution of HIV-1 IIIB concentrated virus stock. Infected and uninfected MT-4 cells were further diluted in complete RPMI media and added to each plate using a Micro Flow dispenser. After 5 days incubation in a humidified and temperature-controlled incubator (37° C.), Cell Titer Glo (Promega) was added to the assay plates and chemiluminescence read using an Envision plate-reader. EC50 values were defined as the compound concentration that causes a 50% decrease in luminescence signal and were calculated using a sigmoidal dose-response model to generate curve fits and are shown in Table 1.

Row | SMILES | EC50 [nM]
1 | C[C@H](Cn1cnc2c(N)ncnc21)OCP(=O)(NC(C)(C)C(=O)OCc1ccccc1)NC(C)(C)C(=O)OCc1ccccc1 [Example 3, Dibenzyl 2,2′-(((((1-(6-amino-9H-purin-9-yl)propan-2-yl)oxy)methyl)phosphoryl)bis(azanediyl))(R)-bis(2-methylpropanoate)] | 10
2 | C[C@H](Cn1cnc2c(N)ncnc21)OCP(=O)(NC(C)(C)C(=O)OCCCCC(F)(F)F)NC(C)(C)C(=O)OCCCCC(F)(F)F [Example 25, Bis(5,5,5-trifluoropentyl) 2,2′-(((((1-(6-amino-9H-purin-9-yl)propan-2-yl)oxy)methyl)phosphoryl)bis(azanediyl))(R)-bis(2-methylpropanoate)] | 8
3 | C[C@H](Cn1cnc2c(N)ncnc21)OCP(=O)(NC(C)(C)C(=O)OC1CC(C)(C)C1)NC(C)(C)C(=O)OC1CC(C)(C)C1 [Example 42, Bis(3,3-dimethylcyclobutyl) 2,2′-(((((1-(6-amino-9H-purin-9-yl)propan-2-yl)oxy)methyl)phosphoryl)bis(azanediyl))(R)-bis(2-methylpropanoate)] | 2
4 | CCC(CC)COC(=O)C(C)(C)NP(=O)(CO[C@H](C)Cn1cnc2c(N)ncnc21)NC(C)(C)C(=O)OCC(CC)CC [Example 2, Bis(2-ethylbutyl) 2,2′-(((((1-(6-amino-9H-purin-9-yl)propan-2-yl)oxy)methyl)phosphoryl)bis(azanediyl))(R)-bis(2-methylpropanoate)] | 4
5 | CCCCOC(=O)C(C)(C)NP(=O)(CO[C@H](C)Cn1cnc2c(N)ncnc21)NC(C)(C)C(=O)OCCCC [Example 38, Dibutyl 2,2′-(((((1-(6-amino-9H-purin-9-yl)propan-2-yl)oxy)methyl)phosphoryl)bis(azanediyl))(R)-bis(2-methylpropanoate)] | 10
6 | C[C@H](Cn1cnc2c(N)ncnc21)OCP(=O)(NC(C)(C)C(=O)OC1CC2(CCC2)C1)NC(C)(C)C(=O)OC1CC2(CCC2)C1 (stereo partly drawn) [Example 41, Di(spiro[3.3]heptan-2-yl) 2,2′-(((((1-(6-amino-9H-purin-9-yl)propan-2-yl)oxy)methyl)phosphoryl)bis(azanediyl))(R)-bis(2-methylpropanoate)] | 3
7 | CC(C)CCOC(=O)C(C)(C)NP(=O)(CO[C@H](C)Cn1cnc2c(N)ncnc21)NC(C)(C)C(=O)OCCC(C)C [Example 6, Diisopentyl 2,2′-(((((1-(6-amino-9H-purin-9-yl)propan-2-yl)oxy)methyl)phosphoryl)bis(azanediyl))(R)-bis(2-methylpropanoate)] | 2
8 | C[C@H](Cn1cnc2c(N)ncnc21)OCP(=O)(NC(C)(C)C(=O)OCC1CC2(CCC2)C1)NC(C)(C)C(=O)OCC1CC2(CCC2)C1 (stereo partly drawn) [Example 50, Bis(spiro[3.3]heptan-2-ylmethyl) 2,2′-(((((1-(6-amino-9H-purin-9-yl)propan-2-yl)oxy)methyl)phosphoryl)bis(azanediyl))(R)-bis(2-methylpropanoate)] | 7
9 | CCCCCCOC(=O)C(C)(C)NP(=O)(CO[C@H](C)Cn1cnc2c(N)ncnc21)NC1(C(=O)OCCCCCC)CCC1 (stereo partly drawn) [Example 18, Hexyl 1-((((((R)-1-(6-amino-9H-purin-9-yl)propan-2-yl)oxy)methyl)((1-(hexyloxy)-2-methyl-1-oxopropan-2-yl)amino)phosphoryl)amino)cyclobutane-1-carboxylate] | 13
10 | CCCCCCOC(=O)[C@@]1(NP(=O)(CO[C@H](C)Cn2cnc3c(N)ncnc32)N[C@]2(C(=O)OCCCCCC)C[C@H]2CC)C[C@H]1CC [Example 17, Dihexyl 1,1′-((((((R)-1-(6-amino-9H-purin-9-yl)propan-2-yl)oxy)methyl)phosphoryl)bis(azanediyl))(1R,1′R,2R,2′R)-bis(2-ethylcyclopropane-1-carboxylate)] | > 500
11 | CCCCCCCCCCCC(=O)Nc1ncnc2c1ncn2C[C@@H](C)OCP(=O)(NC(C)(C)C(=O)OCCCCCC)NC(C)(C)C(=O)OCCCCCC [Example 30, Dihexyl 2,2′-(((((1-(6-dodecanamido-9H-purin-9-yl)propan-2-yl)oxy)methyl)phosphoryl)bis(azanediyl))(R)-bis(2-methylpropanoate)] | 68

Other lines, results leading:

Row | EC50 [nM] | SMILES
12 | 5 | C[C@H](Cn1cnc2c(N)ncnc21)OCP(=O)(NC(C)(C)C(=O)OCC1CC2(C1)CC(F)(F)C2)NC(C)(C)C(=O)OCC1CC2(C1)CC(F)(F)C2 [Example 58, Bis((6,6-difluorospiro[3.3]heptan-2-yl)methyl) 2,2′-(((((1-(6-amino-9H-purin-9-yl)propan-2-yl)oxy)methyl)phosphoryl)bis(azanediyl))(R)-bis(2-methylpropanoate)]
13 | 27 | CCCCCCOC(=O)C(C)(C)NP(=O)(CO[C@H](C)Cn1cnc2c(NC(=O)OCC(=O)OCc3oc(=O)oc3C)ncnc21)NC(C)(C)C(=O)OCCCCCC [Example 95, Dihexyl 2,2′-(((((1-(6-(((2-((5-methyl-2-oxo-1,3-dioxol-4-yl)methoxy)-2-oxoethoxy)carbonyl)amino)-9H-purin-9-yl)propan-2-yl)oxy)methyl)phosphoryl)bis(azanediyl))(R)-bis(2-methylpropanoate)]
14 | 28 | C[C@H](Cn1cnc2c(N)ncnc21)OCP(=O)(NC(C)(C)C(=O)OC1CCC2(CCCC2)CC1)NC(C)(C)C(=O)OC1CCC2(CCCC2)CC1 (stereo partly drawn) [Example 61, Di(spiro[4.5]decan-8-yl) 2,2′-(((((1-(6-amino-9H-purin-9-yl)propan-2-yl)oxy)methyl)phosphoryl)bis(azanediyl))(R)-bis(2-methylpropanoate)]
15 | 7 | C[C@H](Cn1cnc2c(N)ncnc21)OCP(=O)(NC(C)(C)C(=O)OC1CC(C2CCC2)C1)NC(C)(C)C(=O)OC1CC(C2CCC2)C1 (stereo partly drawn) [Example 90, Di([1,1′-bi(cyclobutan)]-3-yl) 2,2′-(((((1-(6-amino-9H-purin-9-yl)propan-2-yl)oxy)methyl)phosphoryl)bis(azanediyl))(R)-bis(2-methylpropanoate)]
16 | 345 | CCCCCCOC(=O)C(C)(C)NP(=O)(CO[C@H](C)Cn1cnc2c(NCc3oc(=O)oc3C)ncnc21)NC(C)(C)C(=O)OCCCCCC [Example 82, Dihexyl 2,2′-(((((1-(6-(((5-methyl-2-oxo-1,3-dioxol-4-yl)methyl)amino)-9H-purin-9-yl)propan-2-yl)oxy)methyl)phosphoryl)bis(azanediyl))(R)-bis(2-methylpropanoate)]
17 | 24 | CCCC(CCC)COC(=O)C(C)(C)NP(=O)(CO[C@H](C)Cn1cnc2c(N)ncnc21)NC(C)(C)C(=O)OCC(CCC)CCC [Example 69, Bis(2-propylpentyl) 2,2′-(((((1-(6-amino-9H-purin-9-yl)propan-2-yl)oxy)methyl)phosphoryl)bis(azanediyl))(R)-bis(2-methylpropanoate)]
18 | 97 | C[C@H](Cn1cnc2c(N)ncnc21)OCP(=O)(NC(C)(C)C(=O)O[C@H]1CC[C@H](c2ccccc2)CC1)NC(C)(C)C(=O)O[C@H]1CC[C@H](c2ccccc2)CC1 [Example 93, Bis(trans-4-phenylcyclohexyl) 2,2′-((((((R)-1-(6-amino-9H-purin-9-yl)propan-2-yl)oxy)methyl)phosphoryl)bis(azanediyl))bis(2-methylpropanoate)]
19 | 7 | C[C@H](Cn1cnc2c(N)ncnc21)OCP(=O)(NC(C)(C)C(=O)OC1CCC2(CCC2)CC1)NC(C)(C)C(=O)OC1CCC2(CCC2)CC1 (stereo partly drawn) [Example 63, Di(spiro[3.5]nonan-7-yl) 2,2′-(((((1-(6-amino-9H-purin-9-yl)propan-2-yl)oxy)methyl)phosphoryl)bis(azanediyl))(R)-bis(2-methylpropanoate)]
20 | 213 | CCCCCCOC(=O)C(C)(C)NP(=O)(CO[C@H](C)Cn1cnc2c(NC(=O)OCC(C)(C)C(=O)OCc3oc(=O)oc3C)ncnc21)NC(C)(C)C(=O)OCCCCCC [Example 98, Dihexyl 2,2′-(((((1-(6-(((2,2-dimethyl-3-((5-methyl-2-oxo-1,3-dioxol-4-yl)methoxy)-3-oxopropoxy)carbonyl)amino)-9H-purin-9-yl)propan-2-yl)oxy)methyl)phosphoryl)bis(azanediyl))(R)-bis(2-methylpropanoate)]
21 | 229 | CCCCCCOC(=O)C(C)(C)NP(=O)(CO[C@H](C)Cn1cnc2/c(=N\Cc3oc(=O)oc3C)n(Cc3oc(=O)oc3C)cnc21)NC(C)(C)C(=O)OCCCCCC [Example 84, Dihexyl 2,2′-(((((1-(1-((5-methyl-2-oxo-1,3-dioxol-4-yl)methyl)-6-(((5-methyl-2-oxo-1,3-dioxol-4-yl)methyl)imino)-1,6-dihydro-9H-purin-9-yl)propan-2-yl)oxy)methyl)phosphoryl)bis(azanediyl))(R,E)-bis(2-methylpropanoate)]
22 | 177 | C[C@H](Cn1cnc2c(N)ncnc21)OCP(=O)(NC(C)(C)C(=O)O[C@@H](C)C1CCCCC1)NC(C)(C)C(=O)O[C@@H](C)C1CCCCC1 [Example 56, Bis((S)-1-cyclohexylethyl) 2,2′-((((((R)-1-(6-amino-9H-purin-9-yl)propan-2-yl)oxy)methyl)phosphoryl)bis(azanediyl))bis(2-methylpropanoate)]
23 | 101 | C[C@H](Cn1cnc2c(N)ncnc21)OCP(=O)(NC(C)(C)C(=O)O[C@H](C)C1CCCCC1)NC(C)(C)C(=O)O[C@H](C)C1CCCCC1 [Example 55, Bis((R)-1-cyclohexylethyl) 2,2′-((((((R)-1-(6-amino-9H-purin-9-yl)propan-2-yl)oxy)methyl)phosphoryl)bis(azanediyl))bis(2-methylpropanoate)]
